{
  "source": "patent US20160082036A1",
  "about": "“HYDROXYALKYL STARCH FOR THE TREATMENT OF CANCERS BY REDUCTION OF TUMOR GROWTH RATES” (Fresenius Kabi Deutschland GmbH, priority 2012, published 2016)",
  "key": {"[1]": {"set-up": "species or system NMRI:nu/nu mice", "settings": "mouse, in vivo", "experimental": "Hydroxyethyl starch compounds were obtained from Fresenius Kabi Deutschland GmbH on Dec. 7, 2012 and were stored at room temperature until use. The compounds each were dissolved in saline to obtain 10% w/v solutions. The application was 400 μl/20 g mouse body weight for saline and HES solutions, while Docetaxel was given in a volume of 10 ml/kg as slow bolus. The route of administration was intravenously for all mice.\nAdult female NMRI:nu/nu mice (TACONIC Europe, Lille Skensved, Denmark) bred in the own (EPO) colony were used throughout the study. At the start of experiment they were 6-8 weeks of age.\nIn study 3 mice were sacrificed when the tumor size reached more than 1.5 cm^3, or the tumors ulcereted. Study 3 was finished when the mean TV was in most groups larger than 1.0 cm^3.\nOn the day of necropsy mice were sacrificed by cervical dislocation and inspected for gross organ changes."}, "[2]": {"test_system": "human breast cell carcinoma line MT-3", "assay": "Example 2: MT-3 xenograft tumor growth after single i.v. injection", "assay_type": "in vivo", "experimental": "Summary: Mice were either treated with a single i.v. injection of docetaxel (Taxotere®) at a dose of 25 mg/kg or with the plasma expander Voluven® (20 ml/kg) or with HES 100/1.0 (approx. 740 mg/kg) dissolved in saline/EtOH to determine tumor growth and body weight over the course of the experiment.\nDocetaxel (available under the name Taxotere®) was obtained from Sanofi-Aventis Deutschland GmbH, (Lot CHB D9C895; Berlin, Germany) and was stored in the dark at −20° C. until use. […] HES 100/1.0 (as specified in table 2 above) was dissolved in saline/EtOH.\n(§1) The final solution of docetaxel was prepared immediately before injection by mixing an appropriate volume of the original stock solution provided by Sanofi (20 mg/ml) with saline (0.9% NaCl, B. Braun Melsungen AG, Melsungen, Germany) as indicated in the table 6 below. Saline was mixed with absolute ethanol to obtain an approx. 6.25% solution, the original vehicle of Taxotere®. Voluven® was used in the original formulation described above.\n(§2) Adult female NMRI:nu/nu mice (TACONIC Europe, Lille Skensved, Denmark) bred in the own (EPO) colony were used throughout the study.\nThe MT-3 cell line was used for subcutaneous (s.c.) xenotransplantation in immune deficient female NMRI:nu/nu mice. The MT-3 breast carcinoma cell line was obtained from the tumor bank of the National Cancer Institute of the former USSR, WONZ, Moscow (Naundorf H. Rewasowa E. Fichtner I et al. Characterization of two human mammary carcinomas, MT-1 and MT-3, suitable for in vivo testing of ether lipids and their derivatives. Breast Cancer Res Treat. 1992; 23:87-95).\nThe cells are cryo-preserved within the EPO tumor bank. Cells were thawed, expanded by in vitro culture and transplanted s.c. as cell suspension (5×10^6 tumor cells/mouse in 200 μl).\nOn study day 0 each 5×10^6 tumor cells were transplanted s.c. into the flank of each mouse. The animals were monitored for tumor growth and when tumors were palpable, about day 7 after inoculation, mice were randomised into the treatment groups.\n(§3) The application volume was 10 ml/kg (approx. 200 μl/20 g mouse) mouse body weight for vehicle, HES 100/1.0 and docetaxel and 20 ml/kg for Voluven®. The route of administration was by intravenous (i.v.) injection into the tail vein.\nIndividual tumor diameters were measured two times weekly with a calliper. Tumor volumes were calculated according to V=(length×(width)^2)/2. For calculation of the relative tumor volume (RTV) the tumor volumes at each measurement day were related to the day of first treatment. At each measurement day the median and mean tumor volumes per group and also the treated to control (T/C RTV) values in percent were calculated.\nMice were sacrificed when tumors reached a mean size above 1 cm^3 per group. On the day of necropsy mice were sacrificed by cervical dislocation and inspected for gross organ changes.\n(§4) Statistical evaluation of was performed with the U-test of Mann and Whitney using the Windows program […] 6. A significance level of p<0.05 was used."}, "[3]": {"assay": "Example 1: body weight and blood parameters of MT-3 tumor-bearing mice", "assay_type": "in vivo, NMRI:nu/nu mice", "experimental": "(§5) Summary: Mice were either treated with a single i.v. injection of docetaxel (Taxotere®) at a dose of 25 mg/kg or with the plasma expander Voluven® (20 ml/kg) or with “HES 100/1.0” (approx. 740 mg/kg) dissolved in saline to determine tumor growth and body weight over the course of the experiment.\nas §2, §3\nIndividual body weights of mice were determined two times weekly and mean body weight per treatment group.\nBlood samples were drawn from the retro-orbital sinus under iso-flurane anaesthesia three days after the treatment. Blood samples of 50-100 μl were taken into tubes prepared with EDTA for haematological parameters from a subset of each group (generally 30-50%). The following parameters were determined: total leucocyte count (WBC), erythrocyte count (RBC), haemoglobin (HGB), haematocrit (HCT), mean corpuscular volume (MCV), mean corpuscular haemoglobin (MCH), mean corpuscular haemoglobin concentration (MCHC) and platelet count (PLT) using a Coulter Counter instrument.\nas §4"}, "[4]": {"test_system": "human breast cell carcinoma line MT-3", "assay": "Example 1: MT-3 xenograft tumor growth after single i.v. injection", "assay_type": "in vivo", "experimental": "as §5\nDocetaxel (available under the name Taxotere®) was obtained from Sanofi-Aventis Deutschland GmbH, (Lot CHB D9C895; Berlin, Germany) and was stored in the dark at −20° C. until use. […] “HES 100/1.0” (as specified in table 2 above) was dissolved in saline.\nas §1, with “indicated in table 4” for “indicated in the table 6”, “in table 4 below. Saline” for “the table 6 below. Saline”\nas §2\nThe MT-3 cell line was used for subcutaneous (s.c.) xenotransplantation in immune deficient female NMRI:nu/nu mice. […]\nOn study day 0 each 5×10^6 tumor cells were transplanted s.c. into the flank of each mouse. The animals were monitored for tumor growth and when tumors were palpable, generally between day 7 and day 10 after transplantation, mice were randomised into the treatment groups. […]\nIndividual tumor diameters were measured two times weekly with a calliper. Tumor volumes were calculated according to V=(length×(width)^2)/2. […] At each measurement day the median and mean tumor volumes per group and also the treated to control (T/C RTV) values in percent were calculated. […]"}, "[5]": {"settings": "blood drawn three days after single i.v. treatment"}, "[6]": {"settings": "single i.v. dose at day 7 after inoculation, MT-3 s.c. in NMRI:nu/nu mice, in cm3 (unit assumed)"}},
  "data": [
    {"compound": "CC(=O)O[C@@]12CO[C@@H]1C[C@H](O)[C@@]1(C)C(=O)[C@H](O)C3=C(C)[C@@H](OC(=O)[C@H](O)[C@@H](NC(=O)OC(C)(C)C)c4ccccc4)C[C@@](O)([C@@H](OC(=O)c4ccccc4)[C@H]21)C3(C)C", "note": "[Docetaxel]", "values": [
      {"measurement": "body weight (in words)", "setting": "[1]", "result": "moderate body weight loss"},
      {"measurement": "general toxicity, clinical sign (in words)", "setting": "[1]; iv", "result": "apathy"},
      {"measurement": "tumor size at day 8", "setting": "[2]; day 8 after inoculation (day of dosing)", "result": 0.0866, "unit": "cm^3"},
      {"measurement": "Tumor volume (mean) cm^3/day 25", "setting": "[2]; single i.v. dose at day 8 after inoculation", "result": 0.343, "unit": "cm^3"},
      {"measurement": "tumor size at day 10", "setting": "[2]; single i.v. dose day 8", "result": 0.1046, "unit": "cm^3"},
      {"measurement": "tumor size at day 15", "setting": "[2]; single i.v. dose day 8", "result": 0.1228, "unit": "cm^3"},
      {"measurement": "tumor size at day 18", "setting": "[2]; single i.v. dose day 8", "result": 0.1995, "unit": "cm^3"},
      {"measurement": "tumor size at day 22", "setting": "[2]; single i.v. dose day 8", "result": 0.2465, "unit": "cm^3"},
      {"measurement": "tumor size at day 25", "setting": "[2]; single i.v. dose day 8", "result": 0.3430, "unit": "cm^3"},
      {"measurement": "inhibition of tumor growth (in words)", "setting": "[2]; single i.v. treatment, compared to control group, table 8, FIG. 2", "result": "significant inhibition of tumor growth"},
      {"measurement": "body weight development (in words)", "setting": "[3]; after single i.v. treatment, FIG. 3", "result": "Body weight loss"},
      {"measurement": "leucopenia (in words)", "setting": "[3]; after single i.v. treatment, table 5", "result": "slight but significant leucopoenia"},
      {"measurement": "Platelets × 10^6 at day 10", "setting": "[3]; [5]", "result": "1418 ± 85 × 10^6"},
      {"measurement": "WBC × 10^6 at day 10", "setting": "[3]; [5]", "result": "3.09 ± 0.76 × 10^6"},
      {"measurement": "effect on platelet counts (in words)", "setting": "[3]; compared to saline+EtOH treated group", "result": "no significant effect on the platelet counts"},
      {"measurement": "Tumor volume (mean) at day 34", "setting": "[4]; [6]", "result": "0.930 ± 0.395"},
      {"measurement": "Tumor volume (mean) nadir", "setting": "[4]; [6]", "result": "0.072 ± 0.047"},
      {"measurement": "inhibition of tumor growth (in words)", "setting": "[4]; single i.v. treatment, compared to control group, FIG. 4", "result": "significant inhibition of tumor growth"}
    ]}
  ]
}
